Measurements reported in US20260176277A1, “COMPOUNDS AND COMPOSITIONS AS eIF4E INHIBITORS AND USES THEREOF” (Ribometrix, Inc., priority 2022, published 2026).

What was measured:
[1] = system: cap-dependent translation in Flp-In-293 reporter cells; experiment: Cellular cap-dependent translation inhibition dual luciferase assay (DLA); assay type: cell-based; conditions: Homo sapiens, ratio of Fluc (cap-dependent) to Rluc (IRES) luminescence, 24 hours of compound treatment
human eIF4E protein = target: T1, human eIF4E protein (Homo sapiens, UniProt P06730); experiment: Biochemical competitive binding assay (TR-FRET competition); conditions: recombinant 6xHIS-tagged human eIF4E, EDA-m7GDP-ATTO-647N probe; read-out: hEIF4E TR-FRET IC50
T1 construct: purchased Novus NBP-45314
Procedure: The potencies of compounds binding to human eIF4E protein were measured using a 384-well time-resolved fluorescence resonance energy transfer (TR-FRET) competition assay. The assay was performed in assay buffer containing 50 mM HEPES pH 7.5, 100 mM KCl, 0.02% Tween-20, and 0.1 mg/mL bovine serum albumin (BSA). The reaction volume was 10 μL and each reaction contained 4 nM recombinant 6×HIS-tagged human eIF4E protein (Novus, NBP-45314), 5 nM EDA-m7GDP-ATTO-647N (Jena Bioscience, NU-827-647N), 2.5 nM Europium conjugated Anti-6×HIS antibody (PerkinElmer, AD0402) and varying concentrations of compound. The final DMSO concentration was 1%.
Compounds were prepared using 11-point, 4-fold serial dilutions in DMSO and 100 nL of diluted compounds were transferred to 384-well assay-ready plates. Recombinant human eIF4E protein at 2× final concentration (8 nM) was pre-incubated with Eu-anti-6×HIS antibody at 2× final concentration (5 nM) for 5 minutes, then 5 μL of the protein solution was added to assay-ready plates. The protein/compound mix was incubated for 15 minutes, after which 5 μL of a solution containing EDA-m7GDP-ATTO-647N probe at 2× final concentration (10 nM) was added. After a subsequent 15-minute incubation, time-resolved fluorescence of assay plates was measured using a Clariostar Plus microplate reader (BMG Labtech) and TR-FRET values were calculated by taking a ratio of the 665 to 620 wavelength signals. After normalization to the average of DMSO control and maximum inhibition control wells, concentration-response data were plotted and standard 4-parameter curve fitting (PEI Signals) was utilized to determine IC50 values.

T1 sequence (P06730 whole entry): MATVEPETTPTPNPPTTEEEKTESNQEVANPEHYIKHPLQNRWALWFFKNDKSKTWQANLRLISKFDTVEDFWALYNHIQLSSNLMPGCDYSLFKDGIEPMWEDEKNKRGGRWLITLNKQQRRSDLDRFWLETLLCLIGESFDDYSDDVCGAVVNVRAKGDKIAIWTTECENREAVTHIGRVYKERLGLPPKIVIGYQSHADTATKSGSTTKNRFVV

| SMILES | IC50 (human eIF4E protein) [µM] | IC50 [1] [µM] |
| --- | --- | --- |
| COc1cc(N2CCc3nc(C)n(CCOc4ccc(Cl)cc4-c4cc(C)nc5c(C(=O)O)csc45)c(=O)c3C2)ccn1 [Compound 23, 7-[5-chloranyl-2-[2-[6-(2-methoxy-4-pyridyl)-2-methyl-4-oxidanylidene-7,8-dihydro-5H-pyrido[4,3-d]pyrimidin-3-yl]ethoxy]phenyl]-5-methyl-thieno[3,2-b]pyridine-3-carboxylic acid; 2,2,2-tris(fluoranyl) acetic acid] | < 0.4 | < 10 |
| CN1CCc2ncn(CCOc3ccc(Cl)cc3-c3cccc(C(=O)O)c3)c(=O)c2C1 [Compound 3] | 10 to 100 | – |
| Cc1cc(-c2cc(Cl)ccc2OCCn2c(C)nc3c(c2=O)CN(CC(F)(F)F)CC3)c2scc(C(=O)NS(C)(=O)=O)c2n1 [Compound 25, 7-[5-chloranyl-2-[2-[2-methyl-4-oxidanylidene-6-[2,2,2-tris(fluoranyl)ethyl]-7,8-dihydro-5H-pyrdo[4,3-d]pyrimidin-3-yl]ethoxy]phenyl]-5-methyl-N-methylsulfonyl-thieno[3,2-b]pyridine-3-carboxamide; 2,2,2-tris(fluoranyl) acetic acid] | < 0.4 | < 10 |
| Cc1cc(-c2cc(Cl)ccc2OCCn2c(C)nc3c(c2=O)CN(c2ccccc2F)CC3)c2scc(C(=O)O)c2n1 [Compound 18] | < 0.4 | < 10 |
| Cc1cc(-c2cc(Cl)ccc2OCCn2c(C)nc3c(c2=O)CN(c2ccn4ncnc4c2)CC3)c2scc(C(=O)O)c2n1 [Compound 22] | < 0.4 | 10 to 20 |
| COCCN1CCc2nc(C)n(CCOc3ccc(Cl)cc3-c3cccc(C(=O)O)c3)c(=O)c2C1 [Compound 6] | 0.4 to 10 | – |
| Cc1cc(-c2cc(Cl)ccc2OCCn2c(C)nc3c(c2=O)CN(C)CC3)c2scc(C(=O)NS(C)(=O)=O)c2n1 [Compound 28, 7-[5-chloranyl-2-[2-[2,6-di(methyl)-4-oxidanylidene-7,8-dihydro-5H-pyrido[4,3-d]pyrimidin-3-yl]ethoxy]phenyl]-5-methyl-N-methylsulfonyl-thieno[3,2-b]pyridine-3-carboxamide; 2,2,2-tris(fluoranyl)acetic acid] | < 0.4 | < 10 |
| Cc1nc2c(c(=O)n1CCOc1ccc(Cl)cc1-c1cccc(C(=O)O)c1)CN(C1CCOCC1)CC2 [Compound 5] | 0.4 to 10 | > 20 |
| Cc1cc(-c2cc(Cl)ccc2OCCn2c(C)nc3c(c2=O)CN(c2ccnc4ccncc24)CC3)c2scc(C(=O)O)c2n1 [Compound 21] | < 0.4 | < 10 |
| Cc1nc2c(c(=O)n1CCOc1ccc(Cl)cc1-c1cccc(C(=O)O)c1)CN(C1COC1)CC2 [Compound 11] | 10 to 100 | > 20 |
| Cc1cc(-c2cc(Cl)ccc2OCCn2c(C)nc3c(c2=O)CN(Cc2ccncc2)CC3)c2scc(C(=O)O)c2n1 [Compound 20] | < 0.4 | < 10 |
| Cc1cc(-c2cc(Cl)ccc2OCCn2c(C)nc3c(c2=O)CN(C)CC3)c2scc(C(=O)O)c2n1 [Compound 29, 7-[5-chloranyl-2-[2-[2,6-di(methyl)-4-oxidanylidene-7,8-dihydro-5H-pyrido[4,3-d]pyrimidin-3-yl]ethoxy]phenyl]-5-methyl-thieno[3,2-b]pyridine-3-carboxylic acid] | < 0.4 | < 10 |
| Cc1cc(-c2cc(Cl)ccc2OCCn2c(C)nc3c(c2=O)CN(CC(F)(F)F)CC3)c2scc(C(=O)O)c2n1 [Compound 24, 7-[5-chloranyl-2-[2-[2-methyl-4-oxidany-lidene-6-[2,2,2-tris(fluoranyl)ethyl]-7,8-dihydro-5H-pyrido[4,3-d]pyrimidin-3-yl]ethoxy]phenyl]-5-methyl-thieno[3,2-b]pyridine-3-carboxylic acid; 2,2,2-tris(fluoranyl) acetic acid] | < 0.4 | < 10 |
| Cc1cc(-c2cc(Cl)ccc2OCCn2c(C)nc3c(c2=O)CN(C)CC3)c2ccc(C(=O)NS(C)(=O)=O)n2n1 [Compound 27, 4-[5-chloranyl-2-[2-[2,6-di(methyl)-4-oxidanylidene-7,8-dihydro-5H-pyrido[4,3-d]pyrimidin-3-yl]ethoxy]phenyl]-2-methyl-N-methylsulfonyl-pyrrolo[1,2-b]pyridazine-7-carboxamide] | < 0.4 | < 10 |
| Cc1cc(-c2cc(Cl)ccc2OCCn2c(C)nc3c(c2=O)CN(C)CCO3)c2scc(C(=O)O)c2n1 [Compound 30, 7-[5-chloranyl-2-[2-[2,6-di(methyl)-4-oxidanylidene-7,8-dihydro-5H-pyrimido[5,4-f][1,4]oxazepin-3-yl]ethoxy]phenyl]-5-methyl-thieno[3,2-b]pyridine-3-carboxylic acid; 2,2,2-tris(fluorenyl) acetic acid] | < 0.4 | < 10 |
| Cc1nc2c(c(=O)n1CC#Cc1ccc(Cl)cc1-c1ccnc3c(C(=O)O)csc13)CN(C)CC2 [Compound 31] | 10 to 100 | > 20 |
| Cc1cc(-c2cc(Cl)ccc2OCCn2c(C)nc3c(c2=O)CN(c2cc(F)ccc2F)CC3)c2scc(C(=O)O)c2n1 [Compound 19] | < 0.4 | < 10 |

Now from value to compound, other results behind:

| IC50 (human eIF4E protein) [µM] | SMILES | IC50 [1] [µM] |
| --- | --- | --- |
| < 0.4 | Cc1nc2c(c(=O)n1CCOc1ccc(Cl)cc1-c1ccnn3c(C(=O)O)ccc13)CN(C)CC2 [Compound 14] | < 10 |
| < 0.4 | Cc1nc2c(c(=O)n1CCOc1ccc(Br)cc1-c1cccc(C(=O)O)c1)CN(C)CC2 [Compound 16] | > 20 |
| 0.4 to 10 | Cc1nc2c(c(=O)n1CCOc1cnc(Cl)cc1-c1ccnc(C(=O)O)c1)CN(C)CC2 [Compound 17] | > 20 |
| 10 to 100 | Cc1nc2c(c(=O)n1CCOc1ccc(Cl)cc1-c1ccc(C(=O)O)cc1)CN(C)CC2 [Compound 2] | – |
| < 0.4 | COCCN1CCc2nc(C)n(CCOc3ccc(Cl)cc3-c3ccnc(C(=O)O)c3)c(=O)c2C1 [Compound 10] | > 20 |
| 0.4 to 10 | CC(=O)N1CCc2nc(C)n(CCOc3ccc(Cl)cc3-c3cccc(C(=O)O)c3)c(=O)c2C1 [Compound 7] | – |
| < 0.4 | Cc1nc2c(c(=O)n1CCOc1ccc(Cl)cc1-c1ccnc(C(=O)NS(C)(=O)=O)c1)CN(C)CC2 [Compound 13] | > 20 |
| < 0.4 | Cc1nc2c(c(=O)n1CCOc1ccc(Cl)cc1-c1cccc(C(=O)O)c1F)CN(C)CC2 [Compound 12] | > 20 |
| < 0.4 | Cc1nc2c(c(=O)n1CCOc1ccc(Cl)cc1-c1ccnc3c(C(=O)O)csc13)CN(C)CC2 [Compound 8] | < 10 |
| < 0.4 | Cc1nc2c(c(=O)n1CCOc1ccc(Cl)cc1-c1ccnc(C(=O)O)c1)CN(C)CC2 [Compound 9] | > 20 |
| < 0.4 | CCN1CCc2nc(C)n(CCOc3ccc(Cl)cc3-c3cccc(C(=O)O)c3)c(=O)c2C1 [Compound 4] | 10 to 20 |
| < 0.4 | Cc1cc(-c2cc(Cl)ccc2OCCn2c(C)nc3c(c2=O)CN(C)CC3)c2ccc(C(=O)O)n2n1 [Compound 26, 4-[5-chloranyl-2-[2-[2,6-di(methyl)-4-oxidanylidene-7,8-dihydro-5H-pyrido[4,3-d]pyrimidin-3-yl]ethoxy]phenyl]-2-methyl-pyrrolo[1,2-b]pyridazine-7-carboxylic acid] | < 10 |
| < 0.4 | Cc1nc2c(c(=O)n1CCOc1ccc(Cl)cc1-c1cccc(C(=O)O)c1)CN(C)CC2 [Compound 1] | – |
| 0.4 to 10 | Cc1nc2c(c(=O)n1CCOc1ccc(Cl)cc1-c1ccnc(-c3n[nH]c(=O)o3)c1)CN(C)CC2 [Compound 15] | > 20 |
